The values below come from paper PMC6002064, “Validated UPLC-MS/MS method for the quantification of dasatinib in plasma: Application to pharmacokinetic interaction studies with nutraceuticals in Wistar rats” (PLoS ONE, 2018).

On the set-up of data set [1]: method as in PMID 28640225. Particulars: rats; cited from earlier work.
Data set [2] can be described thus: Stability of DAS in rat plasma QC samples. In kind it is in vitro ADME. On the procedure:
QC samples spiked at two concentration levels of DAS, low (3 ng/mL) and high (450 ng/mL), were analyzed (n = 6) in order to assess the drug stability in plasma. Stability testing were performed by exposing the QC plasma samples to different conditions, namely auto-sampler stability (extracted samples left in the auto-sampler at 10°C for 56 h before injection), short-term (bench-top) stability (samples left at room temperature (25 °C) for 6 h), and long-term stability (samples left at -30°C for 30 days). Moreover, freeze-thaw stability was assessed as follows, plasma samples were frozen at around -30°C and then thawed at room temperature for three cycles. For each sample, DAS concentrations were related to the nominal concentrations to calculate the % recovery.

Data set [3] is described as follows: Pharmacokinetic interaction study of oral DAS with nutraceuticals in acetic acid-induced UC Wistar rats (UPLC-MS/MS of plasma). The data set is classed as in vivo. Conditions: DAS 25 mg/kg oral. On the procedure:
Calibration standards, QC samples, as well as blank plasma samples were centrifugated at 6000 rpm for 5 min. Following the separation of the methanolic supernatants, the residues of individual samples were separately washed with 0.5 mL volumes of methanol. The combined supernatant and washing of each sample were cleaned-up by passing onto STRATA® C 18-E (200 mg, 3 mL) SPE cartridges, previously preconditioned with 3.0 mL methanol followed by 3.0 mL ultrapure water. The retained drugs were eluted from each sample using separate volumes of 0.5 mL methanol. Following the evaporation of the eluted methanolic solutions to dryness under nitrogen, the residue was reconstituted in 0.5 mL acetonitrile. Finally, UPLC–MS/MS analysis of the reconstituted samples was performed by injecting 5 μL volumes of each sample under the operating conditions.
Wistar healthy male rats weighing 250 ± 30 g were provided by the animal house, Women Student-Medical studies & Sciences Sections, College of Pharmacy, King Saud University, Riyadh, Saudi Arabia. The rats were placed in cages kept in a well-ventilated room and subjected to a regular 12 h day–night cycle at a relative humidity of 40–60% and average temperature of 24–27°C. All the rats could access the water freely while diet was prohibited for 12 h before drug administration. The rats were acclimatized for 7 days to laboratory conditions before conducting the experiment. Seven groups of five rats each were involved in the study. For all rats, UC was induced by oral daily administration of 1 mL volumes of 5% glacial acetic acid in water for three successive days. DAS suspension was prepared by triturating 125 mg of DAS with 5 mL aqueous methyl cellulose (0.5%, w/v) to prepare DAS suspension of 25 mg/mL, given to all groups with the exception of group V where olive oil was used for the suspension preparation. Curcumin preparations (50 mg/mL) were prepared by suspending the content of one capsule of either Curcumin 95 500 mg or Super Bio-Curcumin 400 mg in 10 mL or 8 mL volumes of water, respectively. By analogy, a suspension of 50 mg/mL olive leaf extract was prepared by suspending the content of one capsule into 10 mL water. However, for cocoa preparations, 450 mg cocoa extract/ 5 mL, aqueous suspensions of either CocoaVia® capsules or CocoaVia® unsweetened dark chocolate powder were prepared by suspending the content of one capsule or 2 g powder, respectively in water. Separate volumes (0.25 mL) of DAS suspension were orally administered to all treated animals using a gavage needle so that all rats received DAS dose of 25 mg/kg. For the purpose of comparison, rats of group I were only treated with DAS. Rats of groups II and III, curcumin groups, were first separately given an oral dose of […] of either Super Bio-Curcumin, curcumin I (rat group II) or Curcumin 95, curcumin II (rat group III). Then 30 min following curcumin administration, DAS suspension was given to the rats in a dose of 25 mg/kg. Rats of groups IV and V, the olive oil groups, were administered olive oil as follows; rats of group IV were separately given an oral dose of olive leaf extract, olive oil I, 50 mg/kg 30 min prior to DAS administration (25 mg/kg), while rats of groups V were separately given an oral dose of DAS suspended in olive oil, olive oil II (25 mg/kg). Finally, rats of groups VI and VII, cocoa groups, were initially given an oral dose of CocoaVia® capsules, cocoa I, 90 mg/kg (rat group VI), or CocoaVia® unsweetened dark chocolate, cocoa II, 90 mg/kg (rat group VII) 30 min before DAS dosing of 25 mg/kg. For each group, volumes of 0.3 mL blood samples were withdrawn from the retro-orbital sinus of each rat into heparinized tubes. Blood samples were collected at different time intervals; 0 (prior to dosing), 0.5, 1, 2, 3, 5, 6, and 24 h following DAS administration. All collected blood samples were centrifuged immediately at 4,500 rpm (30 min, 4°C).

Data set [4] in a line: Stability of DAS solutions. The data set is classed as physicochemical.
The nature of data set [5]: Stability of DAS in rat plasma QC samples. The data set is classed as in vitro ADME. Particulars: DAS solutions, 4°C, n = 6, read-out: Mean recovery (%) ±RSD, refrigerator stability.
Setting [6] is: male, Wistar, rat, DAS in plasma, n = 5, mean±SD.

One may read the AUC(0-inf) as the area under the concentration-time curve extrapolated to infinity. High values mean high exposure, low ones low exposure. Usually AUC(0-t) stands for exposure summed from dosing to a finite time, without extrapolation to infinity. Higher therefore signals more exposure. Broadly, the Tmax is the time at which the peak concentration occurs. What is called Cmax is the maximum level reached in the sampled fluid or tissue.

`CC(=O)N1CCN(c2ccc(OCC3COC(Cn4ccnc4)(c4ccc(Cl)cc4Cl)O3)cc2)CC1` (stereo not shown) [ketoconazole]: the “effect of co-administration on the PK of sorafenib” value in data set [1] was “did not cause a significant effect”.
Take `Cc1nc(Nc2ncc(C(=O)Nc3c(C)cccc3Cl)s2)cc(N2CCN(CCO)CC2)n1` [DAS, Dasatinib]: in data set [2] (extracted rat plasma QC samples, 10°C, 56 h, extracted samples, 3 ng/mL in rat plasma, n = 6, read-out: Mean recovery (%) ±RSD, auto-sampler stability), the recovery at 56 h, 3 ng/mL came out at 97.3%. Moreover, the recovery at 56 h, 450 ng/mL in data set [2] (extracted rat plasma QC samples, 10°C, 56 h, extracted samples, 450 ng/mL in rat plasma, n = 6, read-out: Mean recovery (%) ±RSD, auto-sampler stability) amounted to 98.5%. Besides, the recovery at 6 h, 3 ng/mL in data set [2] (rat plasma QC samples, 25°C, 6 h, 3 ng/mL in rat plasma, n = 6, read-out: Mean recovery (%) ±RSD, short-term stability) came out at 96.1%. Moreover, the recovery at 6 h, 450 ng/mL in data set [2] (rat plasma QC samples, 25°C, 6 h, 450 ng/mL in rat plasma, n = 6, read-out: Mean recovery (%) ±RSD, short-term stability) came to 97.2%. In data set [2] (rat plasma QC samples, -30°C, 3 cycles, 3 ng/mL in rat plasma, n = 6, read-out: Mean recovery (%) ±RSD, freeze-thaw stability), the recovery at 3 freeze-thaw cycles, 3 ng/mL was determined as 101%. In addition, in data set [2] (rat plasma QC samples, -30°C, 3 cycles, 450 ng/mL in rat plasma, n = 6, read-out: Mean recovery (%) ±RSD, freeze-thaw stability), the recovery at 3 freeze-thaw cycles, 450 ng/mL came to 99.5%. Besides, the recovery at 30 days, 3 ng/mL in data set [2] (rat plasma QC samples, -30°C, 30 days, 3 ng/mL in rat plasma, n = 6, read-out: Mean recovery (%) ±RSD, long-term stability) was found to be 97.9%. The recovery at 30 days, 450 ng/mL in data set [2] (rat plasma QC samples, -30°C, 30 days, 450 ng/mL in rat plasma, n = 6, read-out: Mean recovery (%) ±RSD, long-term stability) is 97.3%. Also, the recovery in data set [2] (rat, rat plasma QC samples, all handling and storage conditions of Table 6, 3 and 450 ng/mL in plasma, read-out: recovery values in stability studies) was ≥ 96.1%. In data set [3] (DAS, n = 5, mean±SD), this compound returned a CL of 9.17 ± 4.01 L/h/kg and a Vd of 238.12 ± 44.22 L/kg. Moreover, in data set [3] (setting [6]), the AUC(0-inf) was 2660 ± 596 ng·h/mL, the AUC(0-t) worked out at 1640 ± 681 ng·h/mL and the time to peak (Tmax) is 30.6 ± 4.8 min. The Cmax in data set [3] (male, Wistar, rat, DAS in plasma, n = 5, mean±SD, nutraceutical given orally 30 min before DAS (olive oil II: DAS suspended in it)) turned out to be 230 ± 31 ng/mL. The MRT last in data set [3] (male, Wistar, rat, DAS in plasma, n = 5, mean±SD, read-out: MRT0-t) amounted to 8.6 ± 0.88 h. Further, the MRT inf in data set [3] (male, Wistar, rat, DAS in plasma, n = 5, mean±SD, read-out: MRT0-∞) came out at 24.4 ± 4.29 h. Also, the half-life in data set [3] (male, Wistar, rat, DAS in plasma, n = 5, mean±SD, read-out: t½ (converted)) is 1070 ± 129 min. Besides, in data set [3] (male, Wistar, rat, plasma, time 0 h (prior to dosing), read-out: Conc*10 (ng/mL plasma), average DAS plasma concentration), the concentration at 0 h was 28.6 ng/mL. Further, the concentration at 0.5 h in data set [3] (male, Wistar, rat, plasma, time 0.5 h, read-out: Conc*10 (ng/mL plasma), average DAS plasma concentration) is 236 ng/mL. Further, the concentration at 1 h in data set [3] (male, Wistar, rat, plasma, time 1 h, read-out: Conc*10 (ng/mL plasma), average DAS plasma concentration) turned out to be 153 ng/mL. Besides, in data set [3] (male, Wistar, rat, plasma, time 2 h, read-out: Conc*10 (ng/mL plasma), average DAS plasma concentration), the concentration at 2 h was found to be 117 ng/mL. Moreover, in data set [3] (male, Wistar, rat, plasma, time 3 h, read-out: Conc*10 (ng/mL plasma), average DAS plasma concentration), the concentration at 3 h is 99.7 ng/mL. In addition, the concentration at 5 h in data set [3] (male, Wistar, rat, plasma, time 5 h, read-out: Conc*10 (ng/mL plasma), average DAS plasma concentration) turned out to be 79.1 ng/mL. The concentration at 6 h in data set [3] (male, Wistar, rat, plasma, time 6 h, read-out: Conc*10 (ng/mL plasma), average DAS plasma concentration) came out at 69.6 ng/mL. The concentration at 24 h in data set [3] (male, Wistar, rat, plasma, time 24 h, read-out: Conc*10 (ng/mL plasma), average DAS plasma concentration) came out at 39.8 ng/mL. Also, the “stability of DAS solutions” value in data set [4] (room temperature for 6 h) is listed as “stable”. Also, the “stability of DAS solutions” value in data set [4] (up to 3 months at the refrigerator (4°C)) was “stable”. The recovery at 3 months, 3 ng/mL in data set [5] (3 ng/mL) amounted to 99.9%. The recovery at 3 months, 450 ng/mL in data set [5] (450 ng/mL) is 98.1%.
